Publication PMC6458995, “MAP4K4 Inhibition Promotes Survival of Human Stem Cell-Derived Cardiomyocytes and Reduces Infarct Size In Vivo” (Cell Stem Cell, 2019)

What was measured:
Test in all cases: Dundee kinase panel
Type in all cases: biochemical
Settings in all cases: for remaining activity at 1 µM: read-out: residual activity
RIPK2 = target: T1, RIPK2 (Homo sapiens, UniProt O43353)
T1 construct: lines 1-140) and Reaction Biology
Experimental: (§1) Compounds were screened at 1 μM. For key hits, pIC50 values were then determined by HTRF as above. […] Stability in mouse and human liver microsomes was determined by Cyprotex.

PAK6 = target: T2, PAK6 (Homo sapiens, UniProt Q9NQU5)
T2 construct: lines 1-140) and Reaction Biology
Experimental: as §1

PRK2 = target: T3, PRK2 (Homo sapiens, UniProt Q16513)
T3 construct: lines 1-140) and Reaction Biology
Experimental: as §1

PIM1 = target: T4, PIM1 (Homo sapiens, UniProt P11309)
T4 construct: lines 1-140) and Reaction Biology
Experimental: as §1

ROCK 2 = target: T5, ROCK 2 (Homo sapiens, UniProt O75116)
T5 construct: lines 1-140) and Reaction Biology
Experimental: as §1

EPH-B2 = target: T6, EPH-B2 (Homo sapiens, UniProt P29323)
T6 construct: lines 1-140) and Reaction Biology
T6 sequence (P29323 19-1055): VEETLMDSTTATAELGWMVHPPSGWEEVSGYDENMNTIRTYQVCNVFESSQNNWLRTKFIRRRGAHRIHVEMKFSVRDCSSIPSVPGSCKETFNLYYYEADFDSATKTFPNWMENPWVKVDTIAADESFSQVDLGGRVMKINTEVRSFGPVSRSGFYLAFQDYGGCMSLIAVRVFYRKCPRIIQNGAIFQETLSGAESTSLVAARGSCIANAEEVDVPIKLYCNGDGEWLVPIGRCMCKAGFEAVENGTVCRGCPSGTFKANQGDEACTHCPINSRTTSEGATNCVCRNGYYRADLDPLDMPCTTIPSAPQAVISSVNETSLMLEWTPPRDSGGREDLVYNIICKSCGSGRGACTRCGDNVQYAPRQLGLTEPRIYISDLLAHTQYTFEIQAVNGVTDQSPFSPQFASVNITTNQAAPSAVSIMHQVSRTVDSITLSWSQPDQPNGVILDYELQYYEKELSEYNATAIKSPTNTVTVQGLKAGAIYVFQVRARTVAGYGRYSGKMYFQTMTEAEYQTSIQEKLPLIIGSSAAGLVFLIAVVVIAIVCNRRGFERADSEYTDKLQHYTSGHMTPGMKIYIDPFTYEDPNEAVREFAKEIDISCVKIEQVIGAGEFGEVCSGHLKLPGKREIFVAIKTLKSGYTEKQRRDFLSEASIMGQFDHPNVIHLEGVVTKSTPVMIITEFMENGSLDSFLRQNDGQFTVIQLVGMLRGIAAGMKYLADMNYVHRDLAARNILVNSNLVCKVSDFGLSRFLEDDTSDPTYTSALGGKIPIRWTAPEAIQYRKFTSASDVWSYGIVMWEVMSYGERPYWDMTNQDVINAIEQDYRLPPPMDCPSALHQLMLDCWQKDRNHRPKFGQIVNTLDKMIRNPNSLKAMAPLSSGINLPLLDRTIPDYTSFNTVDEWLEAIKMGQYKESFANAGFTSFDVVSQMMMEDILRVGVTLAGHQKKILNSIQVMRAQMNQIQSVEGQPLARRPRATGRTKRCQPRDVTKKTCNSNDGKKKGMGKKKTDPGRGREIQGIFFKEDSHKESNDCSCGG
Experimental: as §1

IRAK4 = target: T7, IRAK4 (Homo sapiens, UniProt Q9NWZ3)
T7 construct: lines 1-140) and Reaction Biology
T7 sequence (Q9NWZ3 1-460): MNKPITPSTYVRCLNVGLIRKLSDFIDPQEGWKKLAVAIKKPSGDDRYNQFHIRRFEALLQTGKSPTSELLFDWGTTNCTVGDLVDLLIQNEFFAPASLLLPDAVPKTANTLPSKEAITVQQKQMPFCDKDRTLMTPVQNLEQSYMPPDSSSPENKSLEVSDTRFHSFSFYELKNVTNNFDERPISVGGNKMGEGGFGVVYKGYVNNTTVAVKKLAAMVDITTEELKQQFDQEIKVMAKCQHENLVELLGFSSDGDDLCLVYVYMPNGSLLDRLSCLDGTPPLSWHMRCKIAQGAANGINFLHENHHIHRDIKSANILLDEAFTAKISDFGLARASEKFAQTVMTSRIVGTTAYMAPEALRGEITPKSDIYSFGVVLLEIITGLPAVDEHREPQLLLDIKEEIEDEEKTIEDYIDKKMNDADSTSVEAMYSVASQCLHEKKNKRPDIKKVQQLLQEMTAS
Experimental: as §1

EF2K = target: T8, EF2K (Homo sapiens, UniProt O00418)
T8 construct: lines 1-140) and Reaction Biology
T8 sequence (O00418 1-725): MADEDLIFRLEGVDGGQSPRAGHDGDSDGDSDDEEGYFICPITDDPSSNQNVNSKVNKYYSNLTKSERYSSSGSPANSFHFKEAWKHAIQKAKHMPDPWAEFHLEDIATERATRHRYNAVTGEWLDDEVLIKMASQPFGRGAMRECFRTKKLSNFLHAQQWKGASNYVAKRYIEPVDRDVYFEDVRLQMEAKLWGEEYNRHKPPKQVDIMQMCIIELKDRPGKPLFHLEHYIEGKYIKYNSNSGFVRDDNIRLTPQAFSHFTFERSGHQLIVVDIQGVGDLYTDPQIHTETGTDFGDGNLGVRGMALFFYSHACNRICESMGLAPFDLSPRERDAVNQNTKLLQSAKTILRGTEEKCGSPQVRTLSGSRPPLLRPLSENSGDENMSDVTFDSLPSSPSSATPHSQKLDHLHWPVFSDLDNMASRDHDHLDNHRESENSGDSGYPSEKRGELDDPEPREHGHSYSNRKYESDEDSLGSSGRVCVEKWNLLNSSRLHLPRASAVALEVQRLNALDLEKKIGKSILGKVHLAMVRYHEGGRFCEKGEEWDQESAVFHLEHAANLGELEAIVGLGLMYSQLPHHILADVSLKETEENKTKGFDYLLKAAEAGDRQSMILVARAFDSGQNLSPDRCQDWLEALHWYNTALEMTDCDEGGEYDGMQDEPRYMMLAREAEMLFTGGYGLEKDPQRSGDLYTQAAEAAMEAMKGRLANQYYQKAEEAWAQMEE
Experimental: as §1

STK33 = target: T9, STK33 (Homo sapiens, UniProt Q9BYT3)
T9 construct: lines 1-140) and Reaction Biology
Experimental: as §1

JNK1 = target: T10, JNK1 (Homo sapiens, UniProt P45983)
T10 construct: lines 1-140) and Reaction Biology
Experimental: as §1

HIPK1 = target: T11, HIPK1 (Homo sapiens, UniProt Q86Z02)
T11 construct: lines 1-140) and Reaction Biology
Experimental: as §1

T1 sequence (O43353 whole entry): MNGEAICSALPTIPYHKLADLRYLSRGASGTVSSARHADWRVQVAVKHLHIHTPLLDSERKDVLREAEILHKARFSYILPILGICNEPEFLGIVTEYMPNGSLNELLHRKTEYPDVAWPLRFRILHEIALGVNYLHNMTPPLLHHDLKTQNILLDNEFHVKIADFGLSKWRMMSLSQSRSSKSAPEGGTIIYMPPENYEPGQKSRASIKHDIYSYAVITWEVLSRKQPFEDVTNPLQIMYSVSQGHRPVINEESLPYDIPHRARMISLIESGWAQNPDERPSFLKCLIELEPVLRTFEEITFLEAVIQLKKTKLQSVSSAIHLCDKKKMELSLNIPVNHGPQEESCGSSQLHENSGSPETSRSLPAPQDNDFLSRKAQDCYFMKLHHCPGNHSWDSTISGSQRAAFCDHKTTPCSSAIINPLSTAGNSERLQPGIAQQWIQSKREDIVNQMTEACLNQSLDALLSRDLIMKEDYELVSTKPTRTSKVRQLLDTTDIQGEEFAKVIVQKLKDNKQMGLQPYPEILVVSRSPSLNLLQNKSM
T5 sequence (O75116 whole entry): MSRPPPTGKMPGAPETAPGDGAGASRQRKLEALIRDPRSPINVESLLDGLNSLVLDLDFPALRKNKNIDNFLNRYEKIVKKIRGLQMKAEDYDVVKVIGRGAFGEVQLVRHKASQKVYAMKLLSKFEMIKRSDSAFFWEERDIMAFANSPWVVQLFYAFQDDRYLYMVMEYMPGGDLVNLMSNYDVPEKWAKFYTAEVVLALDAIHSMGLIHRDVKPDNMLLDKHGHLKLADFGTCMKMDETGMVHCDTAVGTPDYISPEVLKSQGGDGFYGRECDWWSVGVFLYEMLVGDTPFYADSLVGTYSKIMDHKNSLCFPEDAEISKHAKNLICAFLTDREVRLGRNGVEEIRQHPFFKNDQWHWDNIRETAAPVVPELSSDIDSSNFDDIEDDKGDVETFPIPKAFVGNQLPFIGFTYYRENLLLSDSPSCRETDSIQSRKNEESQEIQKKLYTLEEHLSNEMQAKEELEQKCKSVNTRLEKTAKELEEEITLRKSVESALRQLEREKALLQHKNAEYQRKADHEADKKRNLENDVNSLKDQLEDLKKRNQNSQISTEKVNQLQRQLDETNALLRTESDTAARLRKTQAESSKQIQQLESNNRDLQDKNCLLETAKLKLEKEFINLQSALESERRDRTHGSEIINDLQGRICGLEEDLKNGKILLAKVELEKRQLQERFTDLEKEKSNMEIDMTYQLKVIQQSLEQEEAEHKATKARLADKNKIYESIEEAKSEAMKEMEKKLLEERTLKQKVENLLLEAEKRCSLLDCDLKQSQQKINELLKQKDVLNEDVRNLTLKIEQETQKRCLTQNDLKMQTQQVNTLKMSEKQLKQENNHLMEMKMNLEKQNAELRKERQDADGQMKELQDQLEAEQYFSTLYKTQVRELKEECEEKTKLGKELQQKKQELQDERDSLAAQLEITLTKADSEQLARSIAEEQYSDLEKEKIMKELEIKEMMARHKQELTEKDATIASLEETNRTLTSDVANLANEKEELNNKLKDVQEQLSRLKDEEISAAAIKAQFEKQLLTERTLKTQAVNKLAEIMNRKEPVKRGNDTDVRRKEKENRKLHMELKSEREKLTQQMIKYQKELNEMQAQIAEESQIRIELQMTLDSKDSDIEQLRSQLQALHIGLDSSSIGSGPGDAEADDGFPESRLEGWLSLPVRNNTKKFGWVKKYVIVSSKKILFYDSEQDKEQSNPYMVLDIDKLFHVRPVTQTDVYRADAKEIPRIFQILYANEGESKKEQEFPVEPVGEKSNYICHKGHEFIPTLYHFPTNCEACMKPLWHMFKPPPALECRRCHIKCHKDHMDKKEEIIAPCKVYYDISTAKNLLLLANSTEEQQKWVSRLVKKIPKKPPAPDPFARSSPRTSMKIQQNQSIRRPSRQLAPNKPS
T2 sequence (Q9NQU5 whole entry): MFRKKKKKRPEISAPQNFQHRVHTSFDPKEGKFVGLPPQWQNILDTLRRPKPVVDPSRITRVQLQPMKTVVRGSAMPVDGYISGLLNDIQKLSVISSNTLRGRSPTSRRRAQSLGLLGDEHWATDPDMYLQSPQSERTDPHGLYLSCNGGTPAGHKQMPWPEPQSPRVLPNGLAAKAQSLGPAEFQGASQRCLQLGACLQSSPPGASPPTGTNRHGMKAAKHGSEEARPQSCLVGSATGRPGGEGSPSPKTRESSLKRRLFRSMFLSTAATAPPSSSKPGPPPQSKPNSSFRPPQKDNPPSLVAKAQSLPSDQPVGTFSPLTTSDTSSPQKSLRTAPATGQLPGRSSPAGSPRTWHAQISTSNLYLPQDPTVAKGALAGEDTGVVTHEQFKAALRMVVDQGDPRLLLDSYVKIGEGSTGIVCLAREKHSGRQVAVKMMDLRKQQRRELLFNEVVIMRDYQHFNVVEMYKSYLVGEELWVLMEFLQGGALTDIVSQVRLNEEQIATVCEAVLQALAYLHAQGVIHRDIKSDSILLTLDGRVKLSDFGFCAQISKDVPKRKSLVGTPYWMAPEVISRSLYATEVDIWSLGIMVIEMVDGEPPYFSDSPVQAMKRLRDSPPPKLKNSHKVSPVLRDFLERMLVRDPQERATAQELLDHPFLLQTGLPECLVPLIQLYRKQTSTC
T10 sequence (P45983 whole entry): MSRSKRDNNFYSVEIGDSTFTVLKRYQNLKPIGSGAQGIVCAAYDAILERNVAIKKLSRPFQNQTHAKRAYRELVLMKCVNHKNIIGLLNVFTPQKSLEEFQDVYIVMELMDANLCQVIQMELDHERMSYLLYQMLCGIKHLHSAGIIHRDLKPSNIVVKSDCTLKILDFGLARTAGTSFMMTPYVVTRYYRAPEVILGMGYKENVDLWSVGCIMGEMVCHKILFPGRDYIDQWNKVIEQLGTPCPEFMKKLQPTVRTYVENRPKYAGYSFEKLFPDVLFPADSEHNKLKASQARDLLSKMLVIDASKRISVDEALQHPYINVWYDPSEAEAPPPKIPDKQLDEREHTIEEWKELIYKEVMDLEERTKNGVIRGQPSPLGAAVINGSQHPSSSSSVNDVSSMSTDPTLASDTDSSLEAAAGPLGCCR
T11 sequence (Q86Z02 whole entry): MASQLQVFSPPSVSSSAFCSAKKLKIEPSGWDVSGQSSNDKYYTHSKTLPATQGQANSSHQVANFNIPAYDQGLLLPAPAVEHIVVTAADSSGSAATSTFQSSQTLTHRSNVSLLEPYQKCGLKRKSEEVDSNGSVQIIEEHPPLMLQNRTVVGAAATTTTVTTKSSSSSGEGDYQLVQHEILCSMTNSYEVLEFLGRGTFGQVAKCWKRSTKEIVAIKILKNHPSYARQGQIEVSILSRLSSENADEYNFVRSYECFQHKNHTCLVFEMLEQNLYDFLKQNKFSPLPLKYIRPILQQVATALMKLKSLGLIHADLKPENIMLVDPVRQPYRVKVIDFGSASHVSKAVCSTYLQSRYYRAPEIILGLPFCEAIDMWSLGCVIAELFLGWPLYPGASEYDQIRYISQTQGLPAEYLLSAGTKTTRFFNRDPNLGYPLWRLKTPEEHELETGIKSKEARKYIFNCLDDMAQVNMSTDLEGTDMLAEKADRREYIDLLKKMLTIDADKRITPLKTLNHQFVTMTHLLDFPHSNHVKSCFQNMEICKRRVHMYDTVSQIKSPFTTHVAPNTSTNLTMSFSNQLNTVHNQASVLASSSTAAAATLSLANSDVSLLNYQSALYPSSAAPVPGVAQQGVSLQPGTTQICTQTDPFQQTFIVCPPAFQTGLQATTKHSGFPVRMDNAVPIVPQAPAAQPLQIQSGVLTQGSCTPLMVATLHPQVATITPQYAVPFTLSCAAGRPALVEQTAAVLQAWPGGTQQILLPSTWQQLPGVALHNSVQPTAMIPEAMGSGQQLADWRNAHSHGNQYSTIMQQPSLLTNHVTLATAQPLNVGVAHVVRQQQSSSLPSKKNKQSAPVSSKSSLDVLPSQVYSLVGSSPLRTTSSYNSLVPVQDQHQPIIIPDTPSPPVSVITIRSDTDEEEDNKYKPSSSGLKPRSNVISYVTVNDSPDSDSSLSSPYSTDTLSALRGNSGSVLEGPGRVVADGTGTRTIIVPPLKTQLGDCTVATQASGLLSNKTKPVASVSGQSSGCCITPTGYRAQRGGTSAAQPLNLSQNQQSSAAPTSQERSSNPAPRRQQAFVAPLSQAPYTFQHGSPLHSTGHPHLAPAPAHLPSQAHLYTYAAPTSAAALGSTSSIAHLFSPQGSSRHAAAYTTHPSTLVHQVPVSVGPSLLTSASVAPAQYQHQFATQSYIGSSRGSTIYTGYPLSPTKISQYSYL
T9 sequence (Q9BYT3 whole entry): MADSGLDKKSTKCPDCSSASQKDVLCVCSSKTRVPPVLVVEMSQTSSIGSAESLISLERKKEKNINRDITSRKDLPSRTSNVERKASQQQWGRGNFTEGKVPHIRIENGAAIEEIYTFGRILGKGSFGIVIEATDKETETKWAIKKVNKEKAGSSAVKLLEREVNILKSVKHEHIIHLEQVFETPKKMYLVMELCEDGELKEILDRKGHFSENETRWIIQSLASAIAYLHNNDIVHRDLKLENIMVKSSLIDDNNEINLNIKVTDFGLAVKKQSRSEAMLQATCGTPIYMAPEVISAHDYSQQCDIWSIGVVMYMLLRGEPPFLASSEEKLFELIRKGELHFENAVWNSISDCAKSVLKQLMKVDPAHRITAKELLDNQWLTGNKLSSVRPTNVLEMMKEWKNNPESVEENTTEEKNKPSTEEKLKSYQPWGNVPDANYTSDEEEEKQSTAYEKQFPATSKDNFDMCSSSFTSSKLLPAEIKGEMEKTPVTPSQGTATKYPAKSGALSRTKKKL
T4 sequence (P11309 whole entry): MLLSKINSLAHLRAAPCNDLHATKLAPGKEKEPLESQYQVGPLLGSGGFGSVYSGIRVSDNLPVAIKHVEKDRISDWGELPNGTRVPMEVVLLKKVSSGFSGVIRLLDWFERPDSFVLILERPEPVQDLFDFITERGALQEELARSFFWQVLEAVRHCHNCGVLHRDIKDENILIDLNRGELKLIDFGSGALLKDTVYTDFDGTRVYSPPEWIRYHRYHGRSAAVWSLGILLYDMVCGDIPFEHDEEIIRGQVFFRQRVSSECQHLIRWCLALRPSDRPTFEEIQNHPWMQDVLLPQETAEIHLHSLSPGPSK

Row | SMILES | remaining activity at 1 µM (RIPK2) | remaining activity at 1 µM (PAK6) | remaining activity at 1 µM (PRK2) | remaining activity at 1 µM (PIM1) | remaining activity at 1 µM (ROCK 2) | remaining activity at 1 µM (EPH-B2) | remaining activity at 1 µM (IRAK4) | remaining activity at 1 µM (EF2K) | remaining activity at 1 µM (STK33) | remaining activity at 1 µM (JNK1) | remaining activity at 1 µM (HIPK1) | also measured
1 | COCCOc1ccc(-c2cn(-c3ccccc3)c3nc[nH]c(=O)c23)cc1 [DMX-5804, 5-[4-(2-methoxy-ethoxy)-phenyl]-7-phenyl-3,7-dihydro-pyrrolo[2,3-d]pyrimidin-4-one] | 89% | 118% | 90% | 98% | 104% | 102% | 97% | 104% | 97% | 122% | 109% | –
2 | Oc1ncnc2c1c(-c1ccccc1)cn2-c1ccccc1 [F1386-0303, 5,7-diphenyl-7H-pyrrolo[2,3-d]pyrimidin-4-ol] | 105% | 105% | 111% | 122% | 132% | 78% | 103% | 99% | 99% | 99% | 54% | –
3 | Nc1ncc(C(=O)NC2CN(C(=O)C3CC3)C2)c2ccc(-c3cccc(F)c3)nc12 [GNE-495] | – | – | – | – | – | – | – | – | – | – | – | residual activity (RIPK2; 1 μM): 11%; residual activity (PAK6; 1 μM): 64%; residual activity (PRK2; 1 μM): 85%; residual activity (PIM1; 1 μM): 103%; residual activity (ROCK 2; 1 μM): 82%; residual activity (EPH-B2; 1 μM): 102%; residual activity (IRAK4; 1 μM): 75%; residual activity (EF2K; 1 μM): 120%; residual activity (STK33; 1 μM): 94%; residual activity (JNK1; 1 μM): 63%; residual activity (HIPK1; 1 μM): 97%
4 | O=C1Nc2ccc(I)cc2/C1=C/c1cc(Br)c(O)c(Br)c1 [GW5074] | 51% | 95% | 68% | 76% | 56% | 94% | 78% | 57% | 71% | 70% | 84% | –
5 | O=C1Cc2c([nH]c3ccc(Br)cc23)-c2ccccc2N1 [Kenpaullone] | 60% | 32% | 57% | 90% | 62% | 99% | 65% | 97% | 92% | 100% | 102% | –
